Laboratory results taken from US9433645B2, “Method and composition for preventing stem cell disruption and aggregation” (R BIO CO., LTD., priority 2012, dated 2016).

Key:
Format in all cases: cell-based, human
[1] = test system: adipose tissue-derived mesenchymal stem cells; experiment: Survival rate of stem cells suspended in normal saline containing acetylsalicylic acid; conditions: for Survival rate: 1.0×10^7 cells
Protocol: After the adipose tissue-derived mesenchymal stem cells isolated in Example 1 were treated with trypsin, the trypsin treated adipose tissue-derived mesenchymal stem cells (1.0×10^7 cells) were suspended in normal saline containing acetylsalicylic acid (Sigma; A5376) at each concentration, and survival rates at 12 and 24 hours were observed. The normal saline containing acetylsalicylic acid was prepared by adding acetylsalicylic acid to normal saline at each concentration and performing sonication at 37 °C for 30 minutes.

[2] = test system: adipose tissue-derived mesenchymal stem cells; experiment: FACS characteristics (marker expression rate) of stem cells after suspension in normal saline containing aspirin lysine
Protocol: (§1) After the adipose tissue-derived mesenchymal stem cells isolated in Example 1 were treated with trypsin, the trypsin treated adipose tissue-derived mesenchymal stem cells (1.0×10^6 cells) were suspended in normal saline containing aspirin lysine (Shinpoong) at each concentration and cultured for 5 days, and the number of cells was measured. Then, after cold-temperature storage for 24 hours, FACS was measured, thereby confirming characteristics of the cells.

[3] = test system: adipose tissue-derived mesenchymal stem cells; experiment: Survival, number of cells and aggregation of stem cells suspended in normal saline containing aspirin lysine
Protocol: as §1

[4] = FACS, aspirin 0.1 mg/10 ml, after cold-temperature storage for 24 hours

Structure (SMILES) | Survival rate ([1]; 12 hours, aspirin 1 mg/10 ml normal saline) [%] | Survival rate ([1]; 12 hours, aspirin 2 mg/10 ml normal saline) [%] | Survival rate ([1]; 12 hours, aspirin 5 mg/10 ml normal saline) [%] | Survival rate ([1]; 24 hours, aspirin 1 mg/10 ml normal saline) [%] | Survival rate ([1]; 24 hours, aspirin 2 mg/10 ml normal saline) [%] | Survival rate ([1]; 24 hours, aspirin 5 mg/10 ml normal saline) [%] | Cytotoxic effect ([1]; aspirin added to 10 ml of normal saline 1.0 mg or more) | Expression rate CD29 [2, 4] [%] | Expression rate CD31 [2, 4] [%] | Expression rate CD44 [2, 4] [%] | Expression rate CD45 [2, 4] [%] | Characteristics of the stem cells (FACS) ([2]; stored at a cold temperature for 24 hours after suspension in normal saline containing aspirin for 24 hours) | Change in the number of cells ([3]; after culturing for 5 days) | Cell survival rate depending on the concentration ([3]; normal saline containing aspirin lysine at each concentration) | Aggregation on storage ([3]; storing the stem cells in normal saline containing aspirin)
CC(=O)Oc1ccccc1C(=O)O [acetylsalicylic acid] | 50 | 20 | 10 | 10 | 10 | 5 | a cytotoxic effect was exhibited |  |  |  |  |  |  |  | 
CC(=O)Oc1ccccc1C(=O)O [aspirin lysine] |  |  |  |  |  |  |  | 99.97 | 0.21 | 99.25 | 0.17 | no influence of the concentration of aspirin | almost no change in the number of cells | slightly decreased, but the decrease was not significant | aggregation may be prevented without causing changes in the characteristics of cells
